Results on three compounds are retold here after patent US20210386367A1, “DEVICES AND SYSTEMS FOR GASTROINTESTINAL MICROBIOME DETECTION AND MANIPULATION” (Progenity, Inc., priority 2018, published 2021).

Values after ≈ are worked out from the molar mass of the structure shown. Read-outs that look alike come from different tables or passages of the source. Bounds are passed on as bounds.

Test [1] relates to Streptococcus spp. spontaneous mutants. The conditions noted are these: S. pneumoniae ATCC 49619; CLSI QC range shown in parentheses; cited from earlier work.
The test system of test [2] is Bacteroides non fragilis clinical isolates. Briefly: MIC distribution against clinical isolates. Format: cell-based. The conditions noted are these: 29 Bacteroides non-fragilis isolates.
Test [3] concerns Prevotella spp. clinical isolates. Briefly: MIC distribution against clinical isolates. The settings on record: 30 Prevotella spp. isolates. The test is classed as cell-based.
The next test relates to S. pyogenes ATCC 49399. Briefly: Time-kill assay. The test is classed as cell-based, Streptococcus pyogenes. The settings on record: 2×, 4×, 8× MIC; 2, 6, 24 hr.
The test system of a further test is Prevotella spp. Kind of test: Agar dilution MIC, 30 clinical isolates. The settings on record: for Mode: modal MIC. Format: cell-based. (Agar dilution tests growth on a series of plates holding different concentrations.)
For test [4], the system named is E. coli (ATCC 25922, ATCC 35218, MMX 1312). Kind of test: Agar dilution MIC (spontaneous mutation study; strain in conditions). The test is classed as cell-based, Escherichia coli.
The test system of a further test is S. pneumoniae ATCC 49619. Briefly: Time-kill assay. The test is classed as cell-based, Streptococcus pneumoniae.
Test [5] concerns E. coli (ATCC 25922, ATCC 35218, MMX 1312). Kind of test: Spontaneous mutation frequency assay. The test is classed as cell-based, Escherichia coli. The conditions noted are these: selection at 4× and 8× MIC, meropenem/ceftriaxone: isolates other than MMX 1312. As to the method: Initial values of the MIC were determined by agar dilution in accordance with guidelines from the Clinical and Laboratory Standards Institute (CLSI; (1) “Methods for Dilution Antimicrobial Susceptibility Tests for Bacteria That Grow Aerobically; Approved Standard; 11th ed.,” CLSI standard M07, 2018; (2) “Methods for Antimicrobial Susceptibility Testing of Anaerobic Bacteria; Approved Standard—Eighth Edition,” CLSI document M11-A8, 2012.).
The agar plates were prepared by mixing a ratio of 1.0 mL of concentrated drug to 49.0 mL of the appropriate molten (47° C.) agar; the drug-supplemented agar was mixed, poured into 15-by-150 mm petri dishes and allowed to solidify and dry at room temperature prior to inoculation. […] Each plate was allowed to cool at room temperature for at least 1 hr.
The isolates were streaked onto the appropriate agar medium and incubated for 20 hr (aerobes) or 48 hr (Bacteroides under anaerobic conditions). Using a sterile swab, several well-isolated colonies were removed and resuspended in sterile saline at a heavy cell density. Each plate was inoculated with 0.5 mL of the cell suspension (each test concentration was inoculated in duplicate). The target inoculum for each spontaneous mutation plate was 10^9-10 CFU. In addition, a portion of the inoculum from each isolate was enumerated by making dilutions, spreading on agar and counting colonies.
Once the inoculum was absorbed into the agar, the plates were incubated at 35° C. Aerobes were examined at 24 and 48 hr, and resulting colonies were counted. Bacteroides were incubated anaerobically for 48-72 hr in the anaerobe chamber and colonies were counted.
Colony counts from plates used to enumerate the initial inoculum density and from the resulting spontaneous mutation frequency test plates were determined. The inoculum size was calculated as CFU inoculated per plate. The spontaneous mutation frequency was calculated using the counts from duplicate spontaneous mutation assay test plates as follows:
If there were no colonies on the antibiotic selection plates, the spontaneous mutation frequency was reported as less than the frequency observed with one colony to indicate that the spontaneous mutation frequency was less than the limit of detection (one CFU). […] The mutation prevention concentration (MPC) was reported as the lowest concentration for which no mutants were selected.

In the next test the test system is Veillonella spp. Kind of test: Agar dilution MIC, 30 clinical isolates. The test is classed as cell-based. The conditions noted are these: for Mode: modal MIC.
For a further test, the system named is E. coli ATCC 25922. Kind of test: Time-kill assay. The settings on record: 2×, 4×, 8× MIC; 2, 6, 24 hr. Format: cell-based, Escherichia coli.
The mark [6] stands for this setting: 30 Prevotella spp. clinical isolates.
Where [7] appears, read: 30 Veillonella spp. clinical isolates.

Penicillin: the “MIC, CLSI QC range” value in [1] was “(0.06-0.25) μg/mL”.

For the compound `CO[C@H]1/C=C/O[C@@]2(C)Oc3c(C)c(O)c4c(O)c(c5c(nc6cc(C)ccn65)c4c3C2=O)NC(=O)/C(C)=C\C=C\[C@H](C)[C@H](O)[C@@H](C)[C@@H](O)[C@@H](C)[C@H](OC(C)=O)[C@@H]1C` [rifaximin], the “Number of test isolates at MIC” value stood at 12 in test [2] (MIC […]), 3 in test [2] (MIC ≤0.03 μg/mL), 1 in test [3] (MIC 32 μg/mL) and 12 in [3] (MIC […]). Also, the “Cumulative percentage of isolates inhibited at MIC” value in test [3] (MIC 32 μg/mL) is 100.0%. The “time-kill kinetics outcome (bactericidal = ≥3 log reduction in CFU per mL)” value in the test on S. pyogenes ATCC 49399 is “bacteriostatic effect against this organism at 2×, 4×, and 8× the MIC”; with S. pneumoniae ATCC 49619 (2×, 4×, 8× MIC, 2, 6, 24 hr), “rebounded to no-drug control levels at 24 hr”; in the test with E. coli ATCC 25922, “bacteriostatic effect at 2-6 hr with regrowth between 6 and 24 hr”. For the same compound, the MIC50 – broadly, an inhibitory concentration at the 50% level, which refers to growth in some studies and to a panel of isolates in others – against Prevotella spp. worked out at 0.12 µg/mL (≈ 0.153 µM); with Prevotella spp. (setting [6]), 0.12 µg/mL (≈ 0.153 µM); in the test on Veillonella spp., 4 µg/mL (≈ 5.09 µM); in the test on Veillonella spp. (setting [7]) it was 4 µg/mL (≈ 5.09 µM). For the same compound, the MIC90 – broadly, the lowest concentration that inhibits either 90% of growth or 90% of the strains tested, depending on the study – with Prevotella spp. was 1 µg/mL (≈ 1.27 µM); with Prevotella spp. (setting [6]), 1 µg/mL (≈ 1.27 µM); with Veillonella spp., 8 µg/mL (≈ 10.2 µM); with Veillonella spp. (setting [7]), 8 µg/mL (≈ 10.2 µM). Moreover, the MIC range against Prevotella spp. (setting [6]) lay within 0.03 to 32 µg/mL; in the test with Veillonella spp. (setting [7]), 0.12 to 16 µg/mL. Also, the figures for the Mode in the test with Prevotella spp. (setting [6]) and in the test with Veillonella spp. (setting [7]) were 0.12 µg/mL and 2 µg/mL, respectively. Further, the “Agar MIC” value in test [4] (E. coli ATCC 25922) is above 4 µg/mL; in test [4] (E. coli ATCC 35218) it was above 4 µg/mL; in test [4] (E. coli MMX 1312), 4 µg/mL. Further, the “MIC values (agar dilution)” value in test [4] (over evaluated E. coli isolates (range stated jointly with other groups)) was at least 4 µg/mL. Further, the CFU decrease entry in the test with S. pneumoniae ATCC 49619 (all three concentrations, 6 hr timepoint) is listed as “approximately 2.3 log10 CFU”. For the same compound, the Spontaneous Mutation Frequency in test [5] is given as > 2.37×10^−8; in test [5] (listed as rifampin) it was ~10^−8.

As for `Cc1ncc([N+](=O)[O-])n1CCO` [MTZ], the “Cumulative percentage of isolates inhibited at MIC” value in test [2] (MIC 0.5 μg/mL) was 55.2%; in [2] (MIC 1 μg/mL), 75.9%; in test [2] (MIC 2 μg/mL), 96.6%; in test [2] (MIC >16 μg/mL), 100.0%; in test [3] (MIC 0.5 μg/mL), 46.7%; in test [3] (MIC 1 μg/mL) it was 76.7%. Further, the “Cumulative percentage of isolates inhibited at MIC” value in test [3] (MIC 4 μg/mL) came to 83.3%; in test [3] (MIC 8 μg/mL) it was 96.7%; in test [3] (MIC >32 μg/mL), 100.0%. Further, the “Number of test isolates at MIC” value was found to be 12 in test [2] (MIC 0.5 μg/mL); 6 in [2] (MIC 1 μg/mL); 6 in test [2] (MIC 2 μg/mL); 1 in test [2] (MIC >16 μg/mL); 8 in [3] (MIC 0.5 μg/mL); 9 in [3] (MIC 1 μg/mL). Further, the figures for the “Number of test isolates at MIC” value in test [3] (MIC 4 μg/mL), in test [3] (MIC 8 μg/mL) and in test [3] (MIC >32 μg/mL) were 2, 4 and 1, respectively. The results for the “% R” value with Prevotella spp. (setting [6]) and with Veillonella spp. (setting [7]) were 3% and 17%, respectively. Also, the “% S” value is recorded as 97% with Prevotella spp. (setting [6]) and 83% with Veillonella spp. (setting [7]). Moreover, the MIC50 in the test on Prevotella spp. (setting [6]) was 1 µg/mL (≈ 5.84 µM); in the test on Veillonella spp. (setting [7]) it was 4 µg/mL (≈ 23.4 µM). For the same compound, the values for the MIC90 in the test on Prevotella spp. (setting [6]) and against Veillonella spp. (setting [7]) were 8 µg/mL (≈ 46.7 µM) and above 32 µg/mL, respectively. Besides, in the test on Prevotella spp. (setting [6]), the MIC range lay in the range of 0.12 to 32 µg/mL. Moreover, the figures for the Mode with Prevotella spp. (setting [6]) and in the test with Veillonella spp. (setting [7]) were 1 µg/mL and 4 µg/mL, respectively.
